The results in this text go back to US20250066286A1, “COMPOSITIONS OF (Z)-ENDOXIFEN AND METHODS OF ENRICHMENT THEREOF” (Atossa Therapeutics, Inc., priority 2022, published 2025).

Holding throughout (assay type): physicochemical
A short description of data set [1]: Storage stability of polymorphic forms at room temperature in a sealed vial (XRPD time course). Conditions: for XRPD change on storage: room temperature. On the procedure: Form I samples were collected for XR-PD analysis following 0, 7, and 42 days of storage, the results of which are shown in FIG. 10.
The stability of polymorphic Form IV was evaluated over 7 days of storage at room temperature in a sealed vial. Portions of the Form IV samples were collected for XRPD analysis following 0 (Form IV), 3 (Form IV-3D3-storage), and 7 days (Form IV-7D3-storage) of storage, the results of which are shown in FIG. 14.
The stability of polymorphic Form IV was also evaluated following crystallization from a room temperature 2-propanol/THF 95/5 (v/v) solvent system containing 40 mg/ml (Z)-endoxifen. XPRD was collected immediately after recovery and following 15 days storage at room temperature in a sealed vial. FIG. 15 provides the resultant XRPD patterns following 15 days storage (Form IV-2PR/THF-15D-storage) and 0 days storage (Form IV-2PR/THF-0D-storage), as well as an XRPD spectrum of Form IV (Form IV) obtained from 2-propanol recrystallization.
Since the room temperature evaporation in acetone yielded a mixture of polymorphic Form I and Form IV XRPD patterns with a very intense unassigned signal at 16.1° 2θ, the sample was re-measured following 7 days storage in a sealed vial. From top to bottom, FIG. 16 provides XRPD patterns of the acetone-generated polymorphs following 7 (EVRT-ACT-7D-storage) and 0 days of storage (EVRT-ACT-0D-storage), a Form IV spectrum (Form IV), and a Form I (Form I) spectrum, respectively.
Form XVII was further assessed after 3 days storage in a sealed vial at room temperature.
Form XVIII was further reassessed by XRPD following 3 and 7 days storage at room temperature in a sealed vial. The data from these analyses are summarized in FIG. 24, which (from top to bottom) provides the sample following 7 days storage (Form XVIII-7D-storage), the sample following 3 days storage (Form XVIII-3D-storage), and the sample immediately following crystallization (Form XVIII).
Form XIX room temperature stability was evaluated with XRPD. XRPD of a Form XIX sample immediately following crystallization (Form XIX) and following 7 days of storage (Form XIX-7D-storage) are shown in FIG. 26.
The stability of polymorphic Form V was over 10 days of storage at room temperature in a sealed vial. XR-PD was performed following 0, 3, and 10 days storage.
To evaluate Form VI stability, XRPD spectra of a Form VI sample were collected following 0, 3, and 14 days of room temperature storage in a sealed vial. The resulting XRPD patterns of the sample following 0 (Form VI), 3 (Form VI-3D-storage), and 14 days storage (Form VI-14D-storage) are shown in FIG. 30.
The stability of polymorphic Form VII was evaluated over 7 days of storage at room temperature in a sealed vial. Portions of the Form VII samples were collected for XRPD analysis over 7 days of storage, the results of which are shown in FIG. 32.
Form VIII stability over 7 days storage in a sealed vial at room temperature was evaluated with XRPD.
The stability of Form IX generated by precipitation from an ethyl acetate/heptane solvent system (Form IX Recrystallization (1)) was evaluated over 7 days of storage at room temperature. Portions of the Form IX sample were collected following 0 and 7 days of storage in a sealed vial and analyzed by XRPD analysis to identify possible changes in the polymorph.
Form IX stability was separately characterized for crystals generated through the addition of (Z)-endoxifen saturated ethyl acetate to heptane (Form IX Recrystallization (2)), which yielded higher crystallinity Form IX than was afforded by heptane addition to (Z)-endoxifen saturated ethyl acetate.
Form IX stability was further evaluated for crystals generated by precipitation from an acetone/butyl methyl ether (acetone/BME) solvent/antisolvent mixture (Form IX Recrystallization (4)). Portions of the Form IX sample were collected following 0 and 5 days of storage in a sealed vial at room temperature and compared to reference XRPD patterns of Forms VII and IX. […]

Data set [2] can be described thus: Mechanical stability: grinding and kneading by ball milling (XRPD). Conditions: for XRPD pattern after mechanical grinding: 10 minutes ball milling at 30 Hz; for XRPD pattern after kneading: 10 minutes ball milling at 30 Hz with catalytic 2-propanol (2 μl). The method, then:
Stability tests were performed on mixtures of Form I and Form IV; Form I and Form VII; and Form I, Form IV, and Form VII. In a first mechanical stability test, the polymorphs were analyzed by XRPD following 10 minutes of grinding by ball milling at 30 Hz. In a second mechanical stability test, the polymorphs were analyzed by XRPD following 10 minutes of kneading by ball milling at 30 Hz in the presence of a catalytic amount of 2-propanol (2 μl).

Data set [3] is described as follows: Stability at various temperatures and relative humidities, seven days (XRPD). As to conditions: 7 days. On the procedure: The stabilities of the polymorphs were also assessed at various temperatures and relative humidities. These analyses were performed by storing 20 mg of polymorph samples for seven days at: (1) 25° C. and 100% relative humidity, (2) 40° C. and 75% relative humidity, (3) 25° C. and 60% relative humidity, and (4) at 60° C. and 75% relative humidity. XRPD was collected on the samples following these incubations and compared to XRPD of the samples prior to storage.

Take `CC/C(=C(\c1ccc(O)cc1)c1ccc(OCCNC)cc1)c1ccccc1` [Form V, (Z)-endoxifen]: the “XRPD change on storage” value in data set [1] (3 days, sealed vial) is reported as “converted almost completely to Form VI”; in data set [1] (10 days, sealed vial), “completely to Form VI”. In the case of `CC/C(=C(\c1ccc(O)cc1)c1ccc(OCCNC)cc1)c1ccccc1` [Form VI, (Z)-endoxifen], the “XRPD change on storage” value in data set [1] (14 days, sealed vial) is on record as “stable under ambient conditions”. Regarding `CC/C(=C(\c1ccc(O)cc1)c1ccc(OCCNC)cc1)c1ccccc1` [Form VIII, (Z)-endoxifen], the “XRPD change on storage” value in data set [1] (7 days, sealed vial) is “no significant difference”. The same measure, in the same setting: for `CC/C(=C(\c1ccc(O)cc1)c1ccc(OCCNC)cc1)c1ccccc1` [Form X, (Z)-endoxifen] the value was “near complete conversion to Form XI”. Consider `CC/C(=C(\c1ccc(O)cc1)c1ccc(OCCNC)cc1)c1ccccc1` [Form XI, (Z)-endoxifen], for which the “XRPD change on storage” value in data set [1] (18 days) is “stable under ambient conditions”. In the case of `CC/C(=C(\c1ccc(O)cc1)c1ccc(OCCNC)cc1)c1ccccc1` [Form XII, (Z)-endoxifen], the “XRPD change on storage” value in data set [1] (2 days, sealed vial) is reported as “stable under ambient conditions”.

Regarding `CC/C(=C(\c1ccc(O)cc1)c1ccc(OCCNC)cc1)c1ccccc1` [Form XIV, (Z)-endoxifen], the “XRPD change on storage” value in data set [1] (3 days, sealed vial) is “partial conversion to Forms I and VII”; in data set [1] (7 days, sealed vial), “partial conversion to Forms I and VII”. With `CC/C(=C(\c1ccc(O)cc1)c1ccc(OCCNC)cc1)c1ccccc1` [Form XIX, (Z)-endoxifen], the “XRPD change on storage” value in data set [1] (7 days, sealed vial) is given as “stable under ambient conditions”. Consider `CC/C(=C(\c1ccc(O)cc1)c1ccc(OCCNC)cc1)c1ccccc1` [Form XV, (Z)-endoxifen], for which the Room temperature stability entry in data set [1] (duration not given) is given as “limited room temperature stabilities”.

As for `CC/C(=C(\c1ccc(O)cc1)c1ccc(OCCNC)cc1)c1ccccc1` [Form XVII, (Z)-endoxifen], the “XRPD change on storage” value in data set [1] (3 days, sealed vial) is reported as “complete conversion of Form XVII (Form XVII) into Form I”. On to `CC/C(=C(\c1ccc(O)cc1)c1ccc(OCCNC)cc1)c1ccccc1` [Form XVIII, (Z)-endoxifen], for which the “XRPD change on storage” value in data set [1] (7 days, sealed vial) is reported as “partial amorphization”. With `CC/C(=C(\c1ccc(O)cc1)c1ccc(OCCNC)cc1)c1ccccc1` [Forms I and IV polymorphic mixture, (Z)-endoxifen], the “XRPD change on storage” value in data set [1] (7 days, sealed vial) was “No significant changes were detected”. For the compound `CC/C(=C(\c1ccc(O)cc1)c1ccc(OCCNC)cc1)c1ccccc1` [first mixture of Form I and Form VII, (Z)-endoxifen], in data set [2], the “XRPD pattern after mechanical grinding” value was “amorphous (Z)-endoxifen with signals ascribable to Form I and Form VII”. `CC/C(=C(\c1ccc(O)cc1)c1ccc(OCCNC)cc1)c1ccccc1` [mixture of Form I and Form IV, (Z)-endoxifen]: in data set [2], the “XRPD pattern after mechanical grinding” value was “Form I with traces of Form IV” and the “XRPD pattern after kneading” value is listed as “Form I with a signal at 4.8° 20 ascribable to Form IV”. The “XRPD pattern after storage” value in data set [3] (25° C./60% RH) was “mixture of Form I and Form IV”. The “XRPD pattern after storage” value in data set [3] (60° C./75% RH) is “XRPD pattern of Form I”. Turning to `CC/C(=C(\c1ccc(O)cc1)c1ccc(OCCNC)cc1)c1ccccc1` [mixture of Form I, Form IV, and Form VII, (Z)-endoxifen], in data set [2], the “XRPD pattern after mechanical grinding” value is reported as “Form I with a slightly lowered degree of crystallinity” and the “XRPD pattern after kneading” value is on record as “Form I with a mild signal at 4.8° 20 ascribable to Form IV”. In addition, the “XRPD pattern after storage” value in data set [3] (25° C./60% RH) was “mixture of Form I, Form IV, and Form VII”. For the same compound, the “XRPD pattern after storage” value in data set [3] (60° C./75% RH) was “mixture of Form I and Form VII”.

`CC/C(=C(\c1ccc(O)cc1)c1ccc(OCCNC)cc1)c1ccccc1` [mixture of Form XII and Form XIII, (Z)-endoxifen]: the “XRPD change on storage” value is “conversion of Form XIII to Form XII” in data set [1] (4 days, sealed vial) and “conversion to only Form XII” in data set [1] (5 days total, sealed vial). For the compound `CC/C(=C(\c1ccc(O)cc1)c1ccc(OCCNC)cc1)c1ccccc1` [second mixture of Form I and Form VII, (Z)-endoxifen], the “XRPD pattern after mechanical grinding” value in data set [2] is “Form I and Form VII with slightly lowered crystallinity”.
